Test results taken from BindingDB's records for doi:10.1021/acsmedchemlett.8b00532 (Sapienza University of Rome, 2019).

Test: Inhibition of NHERF1 in human SW620 cells expressing NHERF1 assessed as inhibition cell growth incubated for 72 hrs by MTT assay

IC50: 19 µM
Compound: Cc1cc([N+](=O)[O-])ccc1NS(=O)(=O)c1cc(Cl)ccc1Cl
